# Data from ChEMBL document CHEMBL1146148, “Hydroxyl radical scavenging by edaravone derivatives: Efficient scavenging by 3-methyl-1-(pyridin-2-yl)-5-pyrazolone with an intramolecular base” (Bioorg Med Chem Lett, 2006).
# Assay: Hydroxyl radical scavenging activity by ESR spin-trapping method
# Type: functional
row,IC50,SMILES
1,250 µM,CC1=NN(c2ccccc2)C(=O)C1 [EDARAVONE]
2,810 µM,O=C1CC(C(F)(F)F)=NN1c1ccccc1
3,18 µM,CC1=NN(c2ccccn2)C(=O)C1
4,720 µM,CC1=NN(c2ccccc2)C(=O)C1C1CC1 (stereo not drawn)

# Second part, the compound before the results:
row,SMILES,IC50
1,CC1=NN(c2ccccc2)C(=O)C1c1ccccc1 (stereo not drawn),790 µM
2,O=C(NC1=NN(c2ccccc2)C(=O)C1)Oc1ccccc1,380 µM
3,CC1=NN(c2ccc([N+](=O)[O-])cc2)C(=O)C1,500 µM
4,CC1=NN(c2ccccc2)C(=O)C1C(=O)c1ccccc1 (stereo not drawn),610 µM
